Test results reported in ChEMBL document CHEMBL1821650, “Pharmacodynamic synergy strictly dependent on the co-operative aggregation of enantiomers of cyclic peptides in the bacterial cell membrane” (Bioorg Med Chem Lett, 2011).
Each block holds one compound with its values, some of them ahead of it. Activity calls are given as the source filed them. The calls are words filed in the database; no cut-off is given here.

What was measured:
[1] = Toxicity in sheep erythrocytes assessed as hemolysis at up to 1000 uM after 20 mins; format: cell-based, Ovis aries; conditions: erythrocyte
Priestia megaterium [2] = experiment: Antimicrobial activity against Bacillus megaterium after 18 hrs by broth microdilution method; format: functional, organism-based
Priestia megaterium [3] = experiment: Antimicrobial activity against Bacillus megaterium at 1 mM after 24 hrs by agar diffusion method; format: functional, organism-based
Priestia megaterium [4] = experiment: Antimicrobial activity against Bacillus megaterium at > 50 uM by broth microdilution method; format: functional, organism-based
[5] = Solubility of the compound in 33 % acetonitrile-water; format: physicochemical; conditions: buffer
[6] = Toxicity in sheep erythrocytes assessed as hemolysis at up to 100 uM after 20 mins; format: cell-based, Ovis aries; conditions: erythrocyte

SMILES: C[C@@H]1NC(=O)[C@@H](CC(C)(C)C)NC(=O)[C@H](C)NC(=O)[C@@H](CC(C)(C)C)NC(=O)[C@@H](CCCCN)NC(=O)[C@@H](CC(C)(C)C)NC(=O)[C@H](C)NC(=O)[C@@H](CC(C)(C)C)NC1=O
Activity [1]: Non-toxic
Activity (Priestia megaterium [2]): inactive
Activity (Priestia megaterium [3]): inactive
Activity (Priestia megaterium [4]): Active

solubility [5]: soluble
SMILES: CC(C)(C)C[C@H]1NC(=O)[C@H](CCC(N)=O)NC(=O)[C@@H](CC(C)(C)C)NC(=O)[C@H](CCC(N)=O)NC(=O)[C@@H](CC(C)(C)C)NC(=O)[C@H](CCC(=O)O)NC(=O)[C@@H](CC(C)(C)C)NC(=O)[C@H](CCC(N)=O)NC1=O

SMILES: C[C@@H]1NC(=O)[C@@H](CC(C)(C)C)NC(=O)[C@H](C)NC(=O)[C@@H](CC(C)(C)C)NC(=O)[C@H](CCCCN)NC(=O)[C@@H](CC(C)(C)C)NC(=O)[C@H](C)NC(=O)[C@@H](CC(C)(C)C)NC1=O
Activity (Priestia megaterium [2]): Active
Activity (Priestia megaterium [3]): Active
Activity [6]: Non-toxic

SMILES: C[C@H]1NC(=O)[C@H](CC(C)(C)C)NC(=O)[C@@H](C)NC(=O)[C@H](CC(C)(C)C)NC(=O)[C@@H](C)NC(=O)[C@H](CC(C)(C)C)NC(=O)[C@H](CCCCN)NC(=O)[C@H](CC(C)(C)C)NC1=O
Activity [1]: Non-toxic
Activity (Priestia megaterium [2]): inactive
Activity (Priestia megaterium [3]): inactive
Activity (Priestia megaterium [4]): Active

SMILES: C[C@H]1NC(=O)[C@H](CC(C)(C)C)NC(=O)[C@@H](C)NC(=O)[C@H](CC(C)(C)C)NC(=O)[C@@H](CCCCN)NC(=O)[C@H](CC(C)(C)C)NC(=O)[C@@H](C)NC(=O)[C@H](CC(C)(C)C)NC1=O
Activity (Priestia megaterium [2]): Active
Activity (Priestia megaterium [3]): Active
Activity [6]: Non-toxic

solubility [5]: soluble
SMILES: CC(C)(C)C[C@@H]1NC(=O)[C@@H](CCC(N)=O)NC(=O)[C@H](CC(C)(C)C)NC(=O)[C@@H](CCC(N)=O)NC(=O)[C@H](CC(C)(C)C)NC(=O)[C@@H](CCC(=O)O)NC(=O)[C@H](CC(C)(C)C)NC(=O)[C@@H](CCC(N)=O)NC1=O
